Calls of active or inactive are those of the source. No cut-off for these calls is given here.
How the values were obtained:
[1] = Chronic toxicity in rat assessed as increase in relative kidney weight at 18.75 mg/kg, iv administered as pluronic F127 formulation at 4 intervals for 21 days and observed 3 weeks post last injection; format: organism-based; details: in vivo, 2544 h, time 106 day
CWR22R = experiment: Effect on cell stiffness in human 22Rv1 cells assessed as increase in young's modulus at 2.7 nM measured after 1 hr by topography based scanning ion-conductance microscopic analysis; format: functional
[2] = Stability of the compound in pH 7.4 buffer measured upto 96 hrs by LC-MS based mass spectrometric analysis; format: physicochemical; details: pH 7.4, 96 h
[3] = Chronic toxicity in rat assessed as increase in creatinine concentration at 18.75 to 22.5 mg/kg, iv administered as pluronic F127 formulation at 4 intervals for 21 days and observed 3 weeks post last injection relative to control; format: organism-based; details: in vivo, 2544 h, dose 18.75-22.5 mg/kg, time 106 day
DU-145 = experiment: Antitumor activity against human DU-145 cells xenografted in BALB/c nude mouse assessed as reduction in tumor growth index at 30 mg/kg, ip measured upto 30 days; format: functional; set-up: scale not given: the % may be the effect or the level left; details: time <= 30 day
[4] = Chronic toxicity in rat assessed as change in relative density of urine at 22.5 mg/kg, iv administered as pluronic F127 formulation at 4 intervals for 21 days and observed 3 weeks post last injection; format: organism-based; details: in vivo, 2544 h, time 106 day
[5] = Chronic toxicity in Soviet Chinchilla rabbit assessed as animal death administered intravenously as pluronic F127 formulation at 4 intervals for 21 days and observed 3 weeks post last injection; set-up: species or system Oryctolagus cuniculus; details: in vivo, iv, 2544 h, time 106 day

## CC(=O)O[C@@]12CO[C@@H]1C[C@H](O)[C@@]1(C)C(=O)[C@H](O)C3=C(C)[C@@H](OC(=O)[C@H](OC(=O)CCCc4cn(CCCNC(=O)[C@H](Cc5ccc(O)cc5)NC(=O)[C@H](Cc5ccccc5)NC(=O)CCC(=O)NCCCCCC(=O)N(CCCC[C@H](NC(=O)N[C@@H](CCC(=O)O)C(=O)O)C(=O)O)Cc5cccc(Cl)c5)nn4)[C@@H](NC(=O)OC(C)(C)C)c4ccccc4)C[C@@](O)([C@@H](OC(=O)c4ccccc4)[C@H]21)C3(C)C
[1]
  Activity: Toxic
CWR22R
  Activity: Active
[2]
  Stability: Unstable
[3]
  Activity: Toxic
DU-145
  Activity: 190.1%
[4]
  Activity: Toxic
[5]
  Activity: Non-Toxic
